Tests used:
S. aureus ATCC 13709 = assay: MIC, NCCLS broth microdilution, S. aureus MSSA; assay type: cell-based, Staphylococcus aureus; settings: S. aureus ATCC 13709, methicillin sensitive strain (MSSA)
Summary of the method: (§1)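 Readout is the minimal inhibition concentration, obtained by NCCLS broth microdilution in microtiter plates. Bacterial testing followed NCCLS documents M7-A4 and M11-A4 […]; the antifungal assay followed Murray's Manual of Clinical Microbiology recommendation.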

E. faecalis ATCC 29212 = assay: MIC, NCCLS broth microdilution, E. faecalis; assay type: cell-based, Enterococcus faecalis
Summary of the method: as §1

[1] = MIC, Table C (organism not given); assay type: cell-based
Experimental: (§2) Compounds according to this invention were screened for their in vitro activities against selected species of bacteria and fungi. The minimal inhibition concentration (MIC) of these compounds was determined using the National Committee for Clinical Laboratory Standards (NCCLS) broth microdilution assay in microtiter plates, as set forth in: (1) the guidelines of the National Committee for Clinical Laboratory Standards (NCCLS) Document M7-A4 (NCCLS, 1997); (2) the guidelines of the National Committee for Clinical Laboratory Standards (NCCLS) Document M11-A4 (NCCLS, 1997); and (3) the guidelines and reference method of the National Committee for Clinical Laboratory Standards (NCCLS) Document M27-T (NCCLS, 1995). For antifungal assays, the method recommended in Murray, P R., 1995 Manual of Clinical Microbiology (ASM Press, Washington, D.C.), was employed.
(§3) Additionally, some compounds were screened against Enterococcus faccium (ATCC 51559, a vancomycin resistant strain (VRE)), Staphylococcus epidermidis (ATCC 12228), Streptococcus pneumoniae (ATCC 51422, a penicillin resistant strain (PRSP)), and/or Streptococcus pyogenes (ATCC 49399).

S. aureus ATCC 27660 = assay: MIC, NCCLS broth microdilution, S. aureus MRSA; assay type: cell-based, Staphylococcus aureus; settings: S. aureus ATCC 27660, methicillin resistant strain (MRSA)
Summary of the method: as §1

B. cereus ATCC 11778 = assay: MIC, NCCLS broth microdilution, B. cereus; assay type: cell-based, Bacillus cereus
Summary of the method: as §1

S. pneumoniae ATCC 49619 = assay: MIC, NCCLS broth microdilution, S. pneumoniae; assay type: cell-based, Streptococcus pneumoniae
Summary of the method: as §1

E. faecium ATCC 51559 = assay: MIC, E. faecium VRE; assay type: cell-based, Enterococcus faccium; settings: Table C; E. faecium ATCC 51559, vancomycin resistant strain (VRE)
Experimental: as §2, §3

[2] = tested on: S. epidermidis ATCC 12228; assay: MIC, S. epidermidis; assay type: cell-based, Staphylococcus epidermidis; settings: Table C
Experimental: as §2, §3

S. aureus ATCC 33591 = assay: MIC, NCCLS broth microdilution, S. aureus ATCC 33591; assay type: cell-based, Staphylococcus aureus
Summary of the method: as §1

C. albicans ATCC 38247 = assay: MIC, antifungal assay, C. albicans; assay type: cell-based, Candida albicans
Summary of the method: as §1

S. pneumoniae ATCC 51422 = assay: MIC, S. pneumoniae PRSP; assay type: cell-based, Streptococcus pneumoniae; settings: Table C; S. pneumoniae ATCC 51422, penicillin resistant strain (PRSP)
Experimental: as §2, §3

S. pyogenes ATCC 4399 = assay: MIC, S. pyogenes; assay type: cell-based, Streptococcus pyogenes; settings: Table C
Experimental: as §2, §3

SMILES | Minimum Inhibitory Concentration (MIC), organism D (S. aureus ATCC 13709) | Minimum Inhibitory Concentration (MIC), organism C (E. faecalis ATCC 29212) | Minimum Inhibitory Concentration (MIC), organism E [1] | Minimum Inhibitory Concentration (MIC), organism E (S. aureus ATCC 27660) | Minimum Inhibitory Concentration (MIC), organism A (B. cereus ATCC 11778) | Minimum Inhibitory Concentration (MIC), organism G (S. pneumoniae ATCC 49619) | Minimum Inhibitory Concentration (MIC), organism A (E. faecium ATCC 51559) | Minimum Inhibitory Concentration (MIC), organism B [2] | Minimum Inhibitory Concentration (MIC), organism F (S. aureus ATCC 33591) | Minimum Inhibitory Concentration (MIC), organism B (C. albicans ATCC 38247) | Minimum Inhibitory Concentration (MIC), organism C (S. pneumoniae ATCC 51422) | Minimum Inhibitory Concentration (MIC), organism D (S. pyogenes ATCC 4399)
COc1ccc2nc(-c3cc(NC(=O)c4cc(NC(=O)c5cc6ccccc6cn5)cn4C)cn3C)[nH]c2c1 [Compound A-4] | +++ (MIC ≦ 4 μg/mL) | +++ (MIC ≦ 4 μg/mL) | +++ (MIC ≦ 4 pg/mL) | +++ (MIC ≦ 4 μg/mL) | +++ (MIC ≦ 4 μg/mL) | +++ (MIC ≦ 4 μg/mL) | +++ (MIC ≦ 4 pg/mL) | +++ (MIC ≦ 4 pg/mL) | +++ (MIC ≦ 4 μg/mL) | >32 µg/mL | – | –
Cn1cc(NC(=O)c2cc3ccccc3cn2)cc1C(=O)Nc1cc(-c2nc3ccc(NC(=O)C(F)(F)F)cc3[nH]2)n(C)c1 [Compound A-5] | +++ (MIC ≦ 4 μg/mL) | +++ (MIC ≦ 4 μg/mL) | +++ (MIC ≦ 4 pg/mL) | +++ (MIC ≦ 4 μg/mL) | +++ (MIC ≦ 4 μg/mL) | +++ (MIC ≦ 4 μg/mL) | +++ (MIC ≦ 4 pg/mL) | +++ (MIC ≦ 4 pg/mL) | +++ (MIC ≦ 4 μg/mL) | >32 µg/mL | – | –
Cn1cc(NC(=O)c2cc3ccccc3cn2)cc1C(=O)Nc1cc(-c2nc3ccc(Cl)cc3[nH]2)n(C)c1 [Compound A-7] | +++ (MIC ≦ 4 μg/mL) | +++ (MIC ≦ 4 μg/mL) | +++ (MIC ≦ 4 pg/mL) | +++ (MIC ≦ 4 μg/mL) | +++ (MIC ≦ 4 μg/mL) | +++ (MIC ≦ 4 μg/mL) | +++ (MIC ≦ 4 pg/mL) | +++ (MIC ≦ 4 pg/mL) | +++ (MIC ≦ 4 μg/mL) | >32 µg/mL | – | –
CN(C)CCCn1cc(NC(=O)c2ccc(F)cc2F)cc1C(=O)Nc1cc(-c2nc3ccccc3[nH]2)n(C)c1 [Compound A-16] | +++ (MIC ≦ 4 μg/mL) | +++ (MIC ≦ 4 μg/mL) | +++ (MIC ≦ 4 pg/mL) | +++ (MIC ≦ 4 μg/mL) | +++ (MIC ≦ 4 μg/mL) | +++ (MIC ≦ 4 μg/mL) | +++ (MIC ≦ 4 pg/mL) | +++ (MIC ≦ 4 pg/mL) | +++ (MIC ≦ 4 μg/mL) | + (12 ≦ MIC ≦ 32 μg/mL) | – | –
Cn1cc(NC(=O)c2cc(NC(=O)c3ccc(Cl)cc3F)cn2CCCN2CCC(F)(F)CC2)cc1-c1nc2cccnc2[nH]1 [Compound A-43] | ++ (4 < MIC < 12 μg/mL) | ++ (4 < MIC < 12 μg/mL) | +++ (MIC ≦ 4 pg/mL) | +++ (MIC ≦ 4 μg/mL) | +++ (MIC ≦ 4 μg/mL) | +++ (MIC ≦ 4 μg/mL) | +++ (MIC ≦ 4 pg/mL) | +++ (MIC ≦ 4 pg/mL) | ++ (4 < MIC < 12 μg/mL) | >32 µg/mL | ++ (4 < MIC < 12 μg/mL) | ++ (4 < MIC < 12 μg/mL)
CN(C)CCCn1cc(NC(=O)c2ccc(Cl)cc2F)cc1C(=O)Nc1cc(-c2nc3ccncc3[nH]2)n(C)c1 [Compound A-45] | +++ (MIC ≦ 4 μg/mL) | +++ (MIC ≦ 4 μg/mL) | +++ (MIC ≦ 4 pg/mL) | +++ (MIC ≦ 4 μg/mL) | +++ (MIC ≦ 4 μg/mL) | +++ (MIC ≦ 4 μg/mL) | +++ (MIC ≦ 4 pg/mL) | +++ (MIC ≦ 4 pg/mL) | +++ (MIC ≦ 4 μg/mL) | ++ (4 < MIC < 12 μg/mL) | – | –
Cn1cc(NC(=O)c2cc(NC(=O)c3sccc3Cl)cn2CCCO)cc1-c1nc2ccccc2[nH]1 [Compound A-48] | +++ (MIC ≦ 4 μg/mL) | +++ (MIC ≦ 4 μg/mL) | +++ (MIC ≦ 4 pg/mL) | +++ (MIC ≦ 4 μg/mL) | +++ (MIC ≦ 4 μg/mL) | +++ (MIC ≦ 4 μg/mL) | +++ (MIC ≦ 4 pg/mL) | +++ (MIC ≦ 4 pg/mL) | +++ (MIC ≦ 4 μg/mL) | >32 µg/mL | – | –
Cn1cc(NC(=O)c2cc(NC(=O)c3sccc3Cl)cn2CCCN2CCCCC2)cc1-c1nc2ccccc2[nH]1 [Compound A-49] | +++ (MIC ≦ 4 μg/mL) | +++ (MIC ≦ 4 μg/mL) | +++ (MIC ≦ 4 pg/mL) | +++ (MIC ≦ 4 μg/mL) | +++ (MIC ≦ 4 μg/mL) | +++ (MIC ≦ 4 μg/mL) | +++ (MIC ≦ 4 pg/mL) | +++ (MIC ≦ 4 pg/mL) | +++ (MIC ≦ 4 μg/mL) | + (12 ≦ MIC ≦ 32 μg/mL) | – | –
Cn1cc(NC(=O)c2cc(NC(=O)c3sccc3Cl)cn2CCCN2CCOCC2)cc1-c1nc2ccccc2[nH]1 [Compound A-50] | +++ (MIC ≦ 4 μg/mL) | +++ (MIC ≦ 4 μg/mL) | +++ (MIC ≦ 4 pg/mL) | +++ (MIC ≦ 4 μg/mL) | +++ (MIC ≦ 4 μg/mL) | +++ (MIC ≦ 4 μg/mL) | +++ (MIC ≦ 4 pg/mL) | +++ (MIC ≦ 4 pg/mL) | +++ (MIC ≦ 4 μg/mL) | >32 µg/mL | – | –
Cn1cc(NC(=O)c2cc(NC(=O)c3sccc3Cl)cn2CCCN2CCSCC2)cc1-c1nc2ccccc2[nH]1 [Compound A-51] | +++ (MIC ≦ 4 μg/mL) | +++ (MIC ≦ 4 μg/mL) | +++ (MIC ≦ 4 pg/mL) | +++ (MIC ≦ 4 μg/mL) | +++ (MIC ≦ 4 μg/mL) | +++ (MIC ≦ 4 μg/mL) | +++ (MIC ≦ 4 pg/mL) | +++ (MIC ≦ 4 pg/mL) | +++ (MIC ≦ 4 μg/mL) | >32 µg/mL | – | –
Cn1cc(NC(=O)c2cc(NC(=O)c3sccc3Cl)cn2CCCN2CCC(F)(F)CC2)cc1-c1nc2ccccc2[nH]1 [Compound A-54] | +++ (MIC ≦ 4 μg/mL) | +++ (MIC ≦ 4 μg/mL) | +++ (MIC ≦ 4 pg/mL) | +++ (MIC ≦ 4 μg/mL) | +++ (MIC ≦ 4 μg/mL) | +++ (MIC ≦ 4 μg/mL) | +++ (MIC ≦ 4 pg/mL) | +++ (MIC ≦ 4 pg/mL) | +++ (MIC ≦ 4 μg/mL) | >32 µg/mL | – | –

Source: patent US7265129B2, “Anti-infective biaryl compounds” (priority 2002, dated 2007)
